How the values were obtained:
[1] = system: BEAS-2B cells; assay: Cell cycle analysis (propidium iodide flow cytometry); format: cell-based, Human; conditions: 0.1 μM, 24 h
Procedure: (§1) 1 × 10^4 cells were harvested, washed with PBS, treated with 0.25 mg/ml RNAse and stained for 15 min with 50 μg/ml propidium iodide. Cell cycle distribution was analyzed by Guava® easyCyte flow cytometer (Millipore, Billerica, MA, United States), using the InCyte software (Millipore).
(§2) FIGURE 7 Effects of phenol TPP-derivatives on mitochondria-dependent apoptosis. A549 and BEAS-2B cells were incubated 24 h in fresh medium (ctrl) or in medium containing 0.1 μM of 1 or 2. (A,B) The activity of caspase 9 and 3 was measured fluorimetrically, in duplicates. Data are means ± SD (n = 3). For both panels: ^∗p < 0.001 vs. A549 ctrl cells; °p < 0.001 for BEAS-2B cells vs. the corresponding condition in A549 cells. (C,D) Cell cycle distribution, measured in duplicates. Data are means ± SD (n = 3). For both panels: ^∗p < 0.001 vs. A549 ctrl cells: °p < 0.001 for BEAS-2B cells vs. the corresponding condition in A549 cells. (E) Bright field microscope analysis of cells. Magnification: 60 × objective (0.52 numerical aperture); 10 × ocular lens. Bar: 20 μM. The micrographs are representative of three experiments with similar results.

[2] = system: A549 cells; assay: as above; format: cell-based, Human; conditions: 0.1 μM, 24 h
Procedure: as §1, §2

[3] = system: MDA-MB-231 cells; assay: Cell viability (neutral red), IC50; format: cell-based; conditions: Homo sapiens, MDA-MB-231 breast cancer cells, CompuSyn
Source text: (§3) Human colon cancer HT29 cells, colon-derived normal fibroblast CCD-18Co cells, lung cancer A549 cells, normal human bronchial epithelial (immortalized with adenovirus 12-SV40 virus hybrid Ad12SV40) BEAS-2B cells, breast cancer MDA-MB-231 cells, normal breast epithelial MCF10A cells, human osteosarcoma U-2OS cells were purchased from ATCC (Manassas, VA, United States). Primary osteoblasts were generated as reported previously ([Buondonno et al., 2016]). HMM and HMC were primary cells stabilized in culture as described ([Aldieri et al., 2004]). The use of primary cells was approved by Ethical Committee of the San Luigi Gonzaga Hospital, Orbassano, (protocol #126/2016). All subjects gave written informed consent in accordance with the Declaration of Helsinki. Cells were maintained in medium supplemented with 10% v/v fetal bovine serum, 1% v/v penicillin-streptomycin, 1% v/v L-glutamine. Morphological analysis was performed with a bright field microscope (Leica Microsystems, Wetzlar, Germany). At least 5 fields/experimental condition were examined.
(§4) The extracellular release of LDH, considered an index of cell damage and necrosis, was measured spectrophotometrically, as reported ([Riganti et al., 2013b]). The extracellular medium was centrifuged at 12,000 × g for 15 min to pellet cellular debris, the cells were washed with fresh medium, detached with 0.01% trypsin/EDTA, re-suspended in 0.2 ml of 82.3 mM triethanolamine phosphate-HCl (pH 7.6), and sonicated on ice with two 10-sec bursts. LDH activity was measured in the extracellular medium and in the cell lysate: 50 μl of extracellular medium or 5 μl of cell lysate were incubated at 37°C with 5 mM NADH. The reaction was started by adding 20 mM pyruvic acid and was monitored for 6 min, measuring absorbance at 340 nm using a Synergy HT Multi-Detection Microplate Reader (Bio-Tek Instruments, Winoosky, MT, United States). The reaction kinetics were linear throughout the time of measurement. Both intracellular and extracellular enzyme activities were expressed as μmol NADH oxidized/min/dish. The results were expressed as percentage of extracellular LDH versus total (intracellular plus extracellular) LDH. Cell viability was measured by the neutral red staining method, as previously reported ([Riganti et al., 2015b]). The absorbance of untreated cells was considered as 100% viability; the results were expressed as percentage of viable cells versus untreated cells. IC50 was calculated with the CompuSyn software^1.

[4] = system: HMC (human mesothelial cells); assay: Cell viability (neutral red), IC50; format: cell-based; conditions: HMC primary mesothelial cells, CompuSyn
Source text: as §3, §4

[5] = system: MCF10A cells; assay: Cell viability (neutral red), IC50; format: cell-based; conditions: Homo sapiens, MCF-10A, MCF10A normal breast epithelial cells, CompuSyn
Source text: as §3, §4

[6] = system: Primary osteoblasts; assay: Cell viability (neutral red), IC50; format: cell-based; conditions: Homo sapiens, Osteoblast, CompuSyn
Source text: as §3, §4

[7] = system: HT29 cells; assay: Cell viability (neutral red), IC50; format: cell-based; conditions: Homo sapiens, HT-29, HT29 colon cancer cells, CompuSyn
Source text: as §3, §4

[8] = system: HMM (human malignant mesothelioma) cells; assay: Cell viability (neutral red), IC50; format: cell-based; conditions: HMM primary malignant mesothelioma cells, CompuSyn
Source text: as §3, §4

[9] = system: CCD-18Co cells; assay: Cell viability (neutral red), IC50; format: cell-based; conditions: Homo sapiens, CCD-18Co colon-derived normal fibroblasts, CompuSyn
Source text: as §3, §4

[10] = system: human cancer cell lines and normal cells; assay: Extracellular LDH release, panel of cancer cell lines and normal cells; format: cell-based; conditions: 24 h, 0.1, 1 and 10 μM
Source text: Human colon cancer HT29 cells, colon-derived normal fibroblast CCD-18Co cells, lung cancer A549 cells, normal human bronchial epithelial (immortalized with adenovirus 12-SV40 virus hybrid Ad12SV40) BEAS-2B cells, breast cancer MDA-MB-231 cells, normal breast epithelial MCF10A cells, human osteosarcoma U-2OS cells were purchased from ATCC (Manassas, VA, United States). Primary osteoblasts were generated as reported previously ([Buondonno et al., 2016]). HMM and HMC were primary cells stabilized in culture as described ([Aldieri et al., 2004]). The use of primary cells was approved by Ethical Committee of the San Luigi Gonzaga Hospital, Orbassano, (protocol #126/2016). […]
The extracellular release of LDH, considered an index of cell damage and necrosis, was measured spectrophotometrically, as reported ([Riganti et al., 2013b]). […] LDH activity was measured in the extracellular medium and in the cell lysate: 50 μl of extracellular medium or 5 μl of cell lysate were incubated at 37°C with 5 mM NADH. The reaction was started by adding 20 mM pyruvic acid and was monitored for 6 min, measuring absorbance at 340 nm using a Synergy HT Multi-Detection Microplate Reader (Bio-Tek Instruments, Winoosky, MT, United States). […] Both intracellular and extracellular enzyme activities were expressed as μmol NADH oxidized/min/dish. […] IC50 was calculated with the CompuSyn software^1. […]

SMILES	cell cycle distribution [1]	percentage of cells in S-phase [2]	percentage of cells in the sub-Go phase [2]	IC50 [3]	IC50 [4]	IC50 [5]	IC50 [6]	IC50 [7]	IC50 [8]	IC50 [9]	release of LDH in the extracellular medium [10]
CC(=O)Oc1ccc(C[P+](c2ccccc2)(c2ccccc2)c2ccccc2)cc1.[Br-] [Compound 1]	no change	reduced percentage	increased	8.32 ± 1.25 µM	7.37 ± 0.89 µM	7.52 ± 0.43 µM	6.46 ± 0.83 µM	4.45 ± 0.78 µM	4.39 ± 0.35 µM	18.2 ± 1.29 µM	dose-dependent increase
O=C(Oc1ccc(C[P+](c2ccccc2)(c2ccccc2)c2ccccc2)cc1C(F)(F)F)c1ccccc1.[Br-] [Compound 2]	no change	reduced percentage	increased	0.34 ± 0.11 µM	39.1 ± 4.34 µM	6.32 ± 0.41 µM	3.41 ± 0.73 µM	3.81 ± 0.47 µM	0.82 ± 0.07 µM	7.89 ± 0.36 µM	dose-dependent increase
